Experimental data from patent US12209087B2, “AKT1 modulators” (Alterome Therapeutics, Inc., priority 2022, dated 2025).

target: T1, full length AKT E17K (Homo sapiens, UniProt P31749, E17K); assay: NanoBRET Target Engagement (TE) Assay; type: cell-based; settings: competitive displacement of tracer in cells, read-out: AKT1 E17K IC50
T1 construct: host or cells: HEK-293 (ATCC CRL-1573)
Procedure, shortened: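 Compound and tracer incubated 2 h before luminescence at donor 450 nm and acceptor 600 nm, with extracellular signal inhibited. EC50 by sigmoidal variable-slope regression.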

T1 sequence (P31749 whole entry E17K): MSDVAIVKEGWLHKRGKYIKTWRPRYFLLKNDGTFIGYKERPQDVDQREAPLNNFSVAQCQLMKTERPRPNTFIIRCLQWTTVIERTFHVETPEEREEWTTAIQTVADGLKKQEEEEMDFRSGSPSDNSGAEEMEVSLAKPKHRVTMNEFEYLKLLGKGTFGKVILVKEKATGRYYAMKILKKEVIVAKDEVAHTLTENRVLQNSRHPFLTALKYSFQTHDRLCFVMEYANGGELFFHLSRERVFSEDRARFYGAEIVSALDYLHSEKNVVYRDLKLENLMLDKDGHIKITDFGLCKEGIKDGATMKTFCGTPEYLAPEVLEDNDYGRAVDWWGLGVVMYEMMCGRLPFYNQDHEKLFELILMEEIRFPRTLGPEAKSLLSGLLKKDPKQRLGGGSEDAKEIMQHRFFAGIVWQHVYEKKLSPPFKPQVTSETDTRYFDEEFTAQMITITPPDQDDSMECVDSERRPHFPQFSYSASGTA

| SMILES | IC50 [nM] |
| --- | --- |
| [2H]C([2H])([2H])N(c1ccnc(C#N)n1)C1CCN(C([2H])([2H])c2ccc(-n3c(-c4cccnc4N)nc4cccnc43)cc2)CC1 [Example 502, 4-((1-((4-(2-(2-Aminopyridin-3-yl)-3H-imidazo[4,5-b]pyridin-3-yl)phenyl)methyl-d2)piperidin-4-yl)(methyl-d3)amino)pyrimidine-2-carbonitrile] | 15 to 60 |
| CN(C(=O)c1ccnc(C#N)n1)C1CCN(Cc2ccc(-n3c(-c4cccnc4N)nc4ccc(-c5ccccc5)nc43)cc2)CC1 [Example 336, N-(1-(4-(2-(2-aminopyridin-3-yl)-5-phenyl-3H-imidazo[4,5-b]pyridin-3-yl)benzyl)piperidin-4-yl)-2-cyano-N-methylpyrimidine-4-carboxamide] | < 15 |

Next, values leading:

| IC50 [nM] | SMILES |
| --- | --- |
| < 15 | N#Cc1nccc(NC2CCN(Cc3ccc(-n4c(-c5cccnc5N)nc5ccc(-c6ccc(OC7CC7)cn6)nc54)cc3)CC2)n1 [Example 585, 4-((1-(4-(2-(2-Aminopyridin-3-yl)-5-(5-cyclopropoxypyridin-2-yl)-3H-imidazo[4,5-b]pyridin-3-yl)benzyl)piperidin-4-yl)amino)pyrimidine-2-carbonitrile] |
| < 15 | Cc1cccc(-c2ccc3nc(-c4cccnc4N)n(-c4ccc(CN5CCC(Nc6ccnc(C#N)n6)CC5)cc4)c3n2)c1 [Example 528, 4-((1-(4-(2-(2-Aminopyridin-3-yl)-5-(m-tolyl)-3H-imidazo[4,5-b]pyridin-3-yl)benzyl)piperidin-4-yl)amino)pyrimidine-2-carbonitrile] |
| < 15 | N#Cc1nccc(NC2CCN(Cc3ccc(-n4c(-c5cccnc5N)nc5ccc(-c6ccc(F)nc6)nc54)cc3)CC2)n1 [Example 404, 4-((1-(4-(2-(2-Aminopyridin-3-yl)-5-(6-fluoropyridin-3-yl)-3H-imidazo[4,5-b]pyridin-3-yl)benzyl)piperidin-4-yl)amino)pyrimidine-2-carbonitrile] |
| < 15 | CC(C)C(=O)Nc1cccc(-c2ccc3nc(-c4cccnc4N)n(-c4ccc(CN5CCC(Nc6ccnc(C#N)n6)CC5)cc4)c3n2)c1 [Example 518, N-(3-(2-(2-Aminopyridin-3-yl)-3-(4-((4-((2-cyanopyrimidin-4-yl)amino)piperidin-1-yl)methyl)phenyl)-3H-imidazo[4,5-b]pyridin-5-yl)phenyl)isobutyramide] |
| 600 to 10000 | N#Cc1nccc(NC2CCN(Cc3ccc(-n4c(-c5cccnc5N)nc5ccc(C(=O)O)nc54)cc3)CC2)n1 [Example 415, 2-(2-Aminopyridin-3-yl)-3-(4-((4-((2-cyanopyrimidin-4-yl)amino)piperidin-1-yl)methyl)phenyl)-3H-imidazo[4,5-b]pyridine-5-carboxylic acid] |
| < 15 | Cc1nn(C)nc1-c1ccc2nc(-c3cccnc3N)n(-c3ccc(CN4CCC(Nc5ccnc(C#N)n5)CC4)cc3)c2n1 [Example 614, 4-((1-(4-(2-(2-Aminopyridin-3-yl)-5-(2,5-dimethyl-2H-1,2,3-triazol-4-yl)-3H-imidazo[4,5-b]pyridin-3-yl)benzyl)piperidin-4-yl)amino)pyrimidine-2-carbonitrile] |
| < 15 | [2H]C([2H])([2H])Oc1ccc(-c2ccc3nc(-c4cccnc4N)n(-c4ccc(CN5CCC(Nc6ccnc(C#N)n6)CC5)cc4)c3n2)cn1 [Example 598, 4-((1-(4-(2-(2-aminopyridin-3-yl)-5-(6-(methoxy-d3)pyridin-3-yl)-3H-imidazo[4,5-b]pyridin-3-yl)benzyl)piperidin-4-yl)amino)pyrimidine-2-carbonitrile] |
| < 15 | CC(C)n1ncc(-c2ccc3nc(-c4cccnc4N)n(-c4ccc(CN5CCC(Nc6ccnc(C#N)n6)CC5)cc4)c3n2)n1 [Example 610, 4-((1-(4-(2-(2-Aminopyridin-3-yl)-5-(2-isopropyl-2H-1,2,3-triazol-4-yl)-3H-imidazo[4,5-b]pyridin-3-yl)benzyl)piperidin-4-yl)amino)pyrimidine-2-carbonitrile] |
| < 15 | COc1ccccc1-c1ccc2nc(-c3cccnc3N)n(-c3ccc(CN4CCC(Nc5ccnc(C#N)n5)CC4)cc3)c2n1 [Example 422, 4-((1-(4-(2-(2-Aminopyridin-3-yl)-5-(2-methoxyphenyl)-3H-imidazo[4,5-b]pyridin-3-yl)benzyl)piperidin-4-yl)amino)pyrimidine-2-carbonitrile] |
| 15 to 60 | N#Cc1nccc(NC2CCN(Cc3ccc(-n4c(-c5cccnc5N)nc5ccc(-c6ccc(=O)n(CF)c6)nc54)cc3)CC2)n1 [Example 607, 4-((1-(4-(2-(2-Aminopyridin-3-yl)-5-(1-(fluoromethyl)-6-oxo-1,6-dihydropyridin-3-yl)-3H-imidazo[4,5-b]pyridin-3-yl)benzyl)piperidin-4-yl)amino)pyrimidine-2-carbonitrile] |

same assay, conditions: competitive tracer displacement in living cells, read-out: AKT1 E17K IC50

| SMILES | IC50 [nM] |
| --- | --- |
| N#Cc1cnnc(N2CCN(Cc3ccc(-n4c(-c5cccnc5N)nc5ccc(-c6ccccc6)nc54)cc3)CC2)c1 [Example 53, 6-(4-(4-(2-(2-Aminopyridin-3-yl)-5-phenyl-3H-imidazo[4,5-b]pyridin-3-yl)benzyl)piperazin-1-yl)pyridazine-4-carbonitrile] | 60 to 600 |
| N#Cc1cccc(NCc2ccc(-n3c(-c4cccnc4N)nc4cccnc43)cc2)n1 [Example 130, 6-((4-(2-(2-Aminopyridin-3-yl)-3H-imidazo[4,5-b]pyridin-3-yl)benzyl)amino)picolinonitrile] | 600 to 10000 |
| C[C@@H]1CN(Cc2ccc(-n3c(-c4cccnc4N)nc4ccc(-c5ccccc5)nc43)cc2)C[C@@H](C)N1c1ncnc(C#N)n1 [Example 256, 4-((2R,6R)-4-(4-(2-(2-Aminopyridin-3-yl)-5-phenyl-3H-imidazo[4,5-b]pyridin-3-yl)benzyl)-2,6-dimethylpiperazin-1-yl)-1,3,5-triazine-2-carbonitrile] | 15 to 60 |
| N#Cc1nccc(C(=O)N2CCN(Cc3ccc(-n4c(-c5cccnc5N)nc5cccnc54)cc3)CC2)n1 [Example 152, 4-(4-(4-(2-(2-aminopyridin-3-yl)-3H-imidazo[4,5-b]pyridin-3-yl)benzyl)piperazine-1-carbonyl)pyrimidine-2-carbonitrile] | 60 to 600 |
| N#Cc1cncc(NCc2ccc(-n3c(-c4cccnc4N)nc4cccnc43)cc2)n1 [Example 133, 6-((4-(2-(2-Aminopyridin-3-yl)-3H-imidazo[4,5-b]pyridin-3-yl)benzyl)amino)pyrazine-2-carbonitrile] | 600 to 10000 |
| N#Cc1ccnc(OC2CCN(Cc3ccc(-n4c(-c5cccnc5N)nc5cc(-c6ccccc6)cnc54)cc3)CC2)c1 [Example 11, 2-((1-(4-(2-(2-Aminopyridin-3-yl)-6-phenyl-3H-imidazo[4,5-b]pyridin-3-yl)benzyl)piperidin-4-yl)oxy)isonicotinonitrile] | 600 to 10000 |
| N#Cc1cccnc1C(=O)NC1CCN(Cc2ccc(-n3c(-c4cccnc4N)nc4cccnc43)cc2)CC1 [Example 28, N-(1-(4-(2-(2-Aminopyridin-3-yl)-3H-imidazo[4,5-b]pyridin-3-yl)benzyl)piperidin-4-yl)-3-cyanopicolinamide] | 600 to 10000 |
| N#Cc1cc(N2C[C@H]3C[C@@H]2CN3Cc2ccc(-n3c(-c4cccnc4N)nc4ccc(-c5ccccc5)nc43)cc2)ncn1 [Example 218, 6-((1R,4R)-5-(4-(2-(2-Aminopyridin-3-yl)-5-phenyl-3H-imidazo[4,5-b]pyridin-3-yl)benzyl)-2,5-diazabicyclo[2.2.1]heptan-2-yl)pyrimidine-4-carbonitrile] | 15 to 60 |
| N#Cc1cncc(NC2CCN(Cc3ccc(-n4c(-c5cccnc5N)nc5ccc(-c6ccccc6)nc54)cc3)CC2)n1 [Example 89, 6-((1-(4-(2-(2-Aminopyridin-3-yl)-5-phenyl-3H-imidazo[4,5-b]pyridin-3-yl)benzyl)piperidin-4-yl)amino)pyrazine-2-carbonitrile] | < 15 |
| C[C@H]1CN(Cc2ccc(-n3c(-c4cccnc4N)nc4ccc(-c5ccccc5)nc43)cc2)C[C@H](C)N1c1ncnc(C#N)n1 [Example 275, 4-((2S,6S)-4-(4-(2-(2-Aminopyridin-3-yl)-5-phenyl-3H-imidazo[4,5-b]pyridin-3-yl)benzyl)-2,6-dimethylpiperazin-1-yl)-1,3,5-triazine-2-carbonitrile] | < 15 |
| N#Cc1cccnc1C(=O)N1CCN(Cc2ccc(-n3c(-c4cccnc4N)nc4cccnc43)cc2)CC1 [Example 110, 2-(4-(4-(2-(2-Aminopyridin-3-yl)-3H-imidazo[4,5-b]pyridin-3-yl)benzyl)piperazine-1-carbonyl)nicotinonitrile] | 600 to 10000 |
| N#Cc1cc(C(=O)NC2CCN(Cc3ccc(-n4c(-c5cccnc5N)nc5cccnc54)cc3)CC2)ncn1 [Example 33, N-(1-(4-(2-(2-Aminopyridin-3-yl)-3H-imidazo[4,5-b]pyridin-3-yl)benzyl)piperidin-4-yl)-6-cyanopyrimidine-4-carboxamide] | 600 to 10000 |
| N#Cc1nccc(NC2CCN(Cc3ccc(-n4c(-c5cccnc5N)nc5ccc(C6CCCCC6)nc54)cc3)CC2)n1 [Example 264, 4-((1-(4-(2-(2-Aminopyridin-3-yl)-5-cyclohexyl-3H-imidazo[4,5-b]pyridin-3-yl)benzyl)piperidin-4-yl)amino)pyrimidine-2-carbonitrile] | < 15 |
| N#Cc1ccc(OC2CCN(Cc3ccc(-n4c(-c5cccnc5N)nc5cc(-c6ccccc6)cnc54)cc3)CC2)nc1 [Example 3, 6-((1-(4-(2-(2-aminopyridin-3-yl)-6-phenyl-3H-imidazo[4,5-b]pyridin-3-yl)benzyl)piperidin-4-yl)oxy)nicotinonitrile] | 600 to 10000 |

Other lines, results leading:

| IC50 [nM] | SMILES |
| --- | --- |
| 15 to 60 | N#Cc1nccc(NC2CCN(Cc3ccc(-n4c(-c5cccnc5N)nc5ccc(C(N)=O)nc54)cc3)CC2)n1 [Example 288, 2-(2-aminopyridin-3-yl)-3-(4-((4-((2-cyanopyrimidin-4-yl)amino)piperidin-1-yl)methyl)phenyl)-3H-imidazo[4,5-b]pyridine-5-carboxamide] |
| < 15 | [2H]C([2H])(c1ccc(-n2c(-c3cccnc3N)nc3ccc(-c4ccccc4)nc32)cc1)N1CCC(Nc2ccnc(C#N)n2)CC1 [Example 222, 4-((1-((4-(2-(2-Aminopyridin-3-yl)-5-phenyl-3H-imidazo[4,5-h]pyridin-3-yl)phenyl)methyl-d2)piperidin-4-yl)amino)pyrimidine-2-carbonitrile] |
